Measurements reported in paper PMC8614864, “Bioengineered System for High Throughput Screening of Kv1 Ion Channel Blockers” (Bioengineering, 2021).
Like-named read-outs stand apart in the source and are kept apart here. Ends that are not written are not given here. linker L1 (45 aa) = not defined here

Columns and labels:
[1] = tested on: Kv1 channels; conditions: ref 17; cited from earlier work
From the text: Consequently, our flow cytometry approach can be used to screen unlabeled small organic blockers for their binding with the external lining of the pore. If necessary, FP-peptide blockers can be substituted in the presented assay by small fluorescently labeled ligands, and their affinities can be estimated by direct titration, using the approach ...

[2] = tested on: KcsA-Kv1.3-RFP; experiment: Direct titration of GFP-labeled toxins on spheroplasts by flow cytometry; type: binding
Description: (§1) Spheroplasts were prepared according to the previously developed protocol. Briefly, E. coli cells (BL21 (DE3) strain) transformed with pET28a-KcsA-Kv1.3-RFP plasmid were cultivated in a minimal M9 medium at 37 °C up to OD560 = 0.8, then induced with 50 μM IPTG and further grown for 18 h. Cells were harvested by centrifugation (5000× g, 10 min, 4 °C), incubated in buffer A (10 mM Tris–HCl, pH 8.0, 0.5 m sucrose) containing lysozyme (20 μg/mL) for 7 min on ice, then diluted twofold with buffer B (10 mM Tris–HCl, pH 8.0, 0.3 mM ethylenediamine tetraacetic acid) and further incubated for 20 min. Then MgCl2 was added to a final concentration of 10 mM to stabilize the spheroplasts. Obtained in this way, the spheroplast suspension has OD560 of about 0.5 and was diluted for binding assay as described further.
(§2) For ligand binding analysis, a series of ligand dilutions were prepared in 12 × 75 mm flow cytometry test tubes. For this, 45 µL of toxin solution with a ten times higher concentration than the maximal concentration on titration curve was prepared. This solution was serially diluted with 3.16-fold step (13.9 µL of toxin solution + 30 µL buffer). These toxin dilutions were supplemented with 270 µL of spheroplast suspension at 10^6 cells/mL to give 300 µL final reaction mixtures. For analysis of displacement of GFP-labeled toxins by unlabeled toxins, spheroplast suspensions were supplemented with 1.1× concentration of GFP-labeled toxin before mixing with unlabeled toxin dilutions. All dilutions were made in a binding buffer: 0.25 M sucrose, […], 2 mM KCl, 50 mM NaCl, 10 mM MgCl2, 0.2% BSA and 50 mM Tris–HCl, pH 7.5.
(§3) To ensure equilibrium conditions, we analyzed samples after 90–120 min of incubation without removing toxins. Data acquisition was carried out with FC-500 flow cytometer (Beckman Coulter, Brea, CA, USA) using 488 nm excitation for both GFP and RFP and fluorescence detection with FL1 (505–545 nm) and FL3 (610–630 nm) channels for GFP and RFP, respectively. To minimize background fluorescence, samples were run at low speed that gave approx. 100–500 events/s. Events were triggered by side scatting (SSC) so that RFP-labeled cells constituted approx. 30% of events (Figure 2). Remaining events were also present in the samples of filtered binding buffer without cells, so were likely to be related to system noise (either electronic or optical) but not to the dim spheroplasts.
(§4) Automated data analysis was performed by a dedicated script after pre-processing with commercial software. The script was available in user-friendly Jupyter notebook format where data were processed stepwise, and user input-output was realized through an internet browser. This script is designed to process multiple datasets at once and can be easily adjusted for someone’s actual needs.
(§5) Initial preprocessing was done with used FlowJo v10 software (Treestar Inc., Wilmington, DE, USA). This was used for gating on cells by forward and side scatter, followed by gating of RFP-positive events (Figure 1) and exporting of gated data in FCS format. This step was preferable since it allowed one to convert data into a conventional FCS format (our flow cytometer import data in LMD file format) and to filter out off-target events such as system noise, cell debris, clumped and untransfected cells (without Kv1.3-RFP in our case). We also created a script for this preprocessing but found it more complicated and less robust than commercial software.
Filtered data were processed stepwise by a dedicated script, written in the Python programming language and available as a Jupyter notebook for running either on a local machine or in a kaggle data cloud (https://www.kaggle.com/georgesharonov/fcsgroupfit, accessed and executed on 14 November 2021). Data processing workflow was designed for high throughput analysis by processing all similar data in a single script execution. The processing steps were detailed within the notebook. […]

[3] = molecular target: KcsA-Kv1.3; conditions: ref Our Previous Data (Table 1); cited from earlier work
Description: (§6) Table 1 Kd values obtained by direct titration of GFP-toxins or by their displacement with unlabeled ones and their comparison to our previous and literature data. | column: Dissociation Constants, nM * / Our Previous Data || Our approach was evaluated using several Kv1.3 ligands with known dissociation constants. These are unlabeled recombinant channel blockers from scorpion venom, AgTx2, ChTx, KTx and labeled GFP-tagged chimeras AgTx-GFP and ChTx-GFP. […] This is close to the values reported earlier: 0.21 nM for AgTx2-GFP in our system and 1.8–2.6 nM for ChTx (Table 1).

[4] = molecular target: KcsA-Kv1.3-RFP; experiment: Displacement of GFP-labeled toxins by unlabeled toxins on spheroplasts, flow cytometry; type: binding; conditions: for Kd: displacement of AgTx2-GFP, Cheng-Prusoff, Mean ± SD, read-out: Apparent dissociation constant (Kap)
Description: as §1, §2, §3, §4
as §5, with “software. […]” for “software.”

[5] = molecular target: Kv1.3; conditions: cited from earlier work
Description: as §6, with “Kd or IC50,” for “Dissociation Constants,”, “nM” for “nM *”, “Literature” for “Our Previous”

[6] = tested on: hybrid Kv1-KcsA channels expressed in the E. coli membrane; conditions: laser scanning confocal microscopy, competitive binding; cited from earlier work
From the text: In order to estimate the possibilities and limitations of the assay, the molecular details of blocker interaction with a natural and chimeric channel should be considered. The common feature of the peptide blocker binding is an occlusion of the pore with the side chain of a lysine residue, which is accompanied by the formation of multiple bonds between the peptide and amino acid residues surrounding the pore. Since the pore occlusion is the essential feature of any Kv1-channel blocker interacting with a channel at the extracellular side, the binding sites of peptide blockers and sm ...

[7] = molecular target: T1, KcsA-Kv1.3 hybrid potassium channel tagged with a red fluorescent protein (TagRFP) (Homotetramer. Turret swap limits are not printed: taken from the known KcsA-Kv1.3 chimera design (ref. 8), KcsA 52-64 replaced by the gap-free aligned Kv1.3 segment (the same stretch is expected in mo)); experiment: flow cytometry on cells; same direct titration data; slope of GFP against RFP by linear fit of all RFP-positive events, one-site fit; conditions: one partner purified
T1 chain: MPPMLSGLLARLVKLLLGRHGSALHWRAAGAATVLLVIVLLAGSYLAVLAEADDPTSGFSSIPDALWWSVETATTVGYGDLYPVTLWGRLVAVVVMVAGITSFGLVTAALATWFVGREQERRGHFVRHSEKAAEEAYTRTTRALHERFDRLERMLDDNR

[8] = molecular target: T1, KcsA-Kv1.3 hybrid potassium channel …; experiment: flow cytometry on cells; same direct titration data; conventional analysis: mean or median of the RFP-positive minus the RFP-negative population; no saturation up to 100 nM, approach called inconsistent by the authors; conditions: one partner purified
[9] = molecular target: T1, KcsA-Kv1.3 hybrid potassium channel …; experiment: flow cytometry on cells; conditions: one partner purified

CC(C)/N=c1\cc2n(-c3ccc(Cl)cc3)c3ccccc3nc-2cc1Nc1ccc(Cl)cc1 [clofazimine]
inhibition of Kv1 channels [1]: inhibit Kv1 channels from the inside of the cell

AgTx2-GFP: AgTx2 tagged N-terminally with eGFP, moieties separated by a 45-aa linker L1; fluorescent probe ({eGFP-linker L1 (45 aa)}-GVPINVSCTGSPQCIKPCKDAGMRFGKCMNRKCHCTPK; ends and bridges not checked)
Slope, nonspecific binding ([2]; 1 nM labeled toxin + 100 nM AgTx, fitting of all events): 0.49 | Slope, nonspecific binding ([2]; 1 nM labeled toxin + 100 nM AgTx, fitting of reduced data): 0.23 | Slope (proportional to occupied receptor fraction) ([2]; 1 nM labeled toxin, fitting of all events): 0.88 | Slope (proportional to occupied receptor fraction) ([2]; 1 nM labeled toxin, fitting of reduced data): 0.82 | Slope, nonspecific binding ([2]; 10 nM labeled toxin + 100 nM AgTx, fitting of all events): 0.54 | Slope (proportional to occupied receptor fraction) ([2]; 10 nM labeled toxin, fitting of all events): 0.95 | Slope (proportional to occupied receptor fraction) ([2]; 10 nM labeled toxin, fitting of reduced data): 0.9 | Kd [3]: 0.21 nM

CC[C@H](C)[C@H](NC(=O)[C@H](CCC(=O)O)NC(=O)[C@@H](NC(=O)CN)C(C)C)C(=O)N[C@@H](CC(N)=O)C(=O)N[C@H](C(=O)N[C@@H](CCCCN)C(=O)N[C@H]1CSSC[C@@H]2NC(=O)[C@H](CCCCN)NC(=O)CNC(=O)[C@H](Cc3ccccc3)NC(=O)[C@H](CCCNC(=N)N)NC(=O)[C@H](CCSC)NC(=O)CNC(=O)[C@H](C)NC(=O)[C@H](CC(=O)O)NC(=O)[C@H](CCCCN)NC(=O)[C@@H]3CSSC[C@@H](C(=O)N[C@H](C(=O)N4CCC[C@H]4C(=O)N[C@@H](CCCCN)C(=O)O)[C@@H](C)O)NC(=O)[C@H](Cc4c[nH]cn4)NC(=O)[C@H](CSSC[C@H](NC(=O)[C@H](CCC(N)=O)NC(=O)[C@@H]4CCCN4C(=O)[C@H](CO)NC(=O)CNC(=O)[C@H](CO)NC1=O)C(=O)N[C@@H](CC(C)C)C(=O)N[C@@H](CCCCN)C(=O)N1CCC[C@H]1C(=O)N3)NC(=O)[C@H](CCCCN)NC(=O)[C@H](CCCNC(=N)N)NC(=O)[C@H](CC(N)=O)NC(=O)[C@H](CCSC)NC2=O)C(C)C [KTx, kaliotoxin 1]
Kd ([4]; n = 3): 0.04 ± 0.02 nM | Kd [3]: 0.78 nM | Kd or IC50 (literature) ([5]; ref 21): 0.65 nM | Kd or IC50 (literature) ([5]; ref 22): 0.02 nM | Kd or IC50 (literature) ([5]; ref 23): 0.1 to 2 nM

CC[C@H](C)[C@@H]1NC(=O)[C@@H]2CSSC[C@@H]3NC(=O)[C@H](CCCCN)NC(=O)[C@H](CCCNC(=N)N)NC(=O)[C@H](CC(N)=O)NC(=O)[C@H](CCSC)NC(=O)[C@H](CSSC[C@H](NC(=O)[C@H](CO)NC(=O)[C@@H](NC(=O)[C@H](CC(N)=O)NC(=O)[C@@H](NC(=O)[C@@H]4CCCN4C(=O)[C@@H](NC(=O)CN)C(C)C)[C@@H](C)CC)C(C)C)C(=O)N[C@@H]([C@@H](C)O)C(=O)NCC(=O)N[C@@H](CO)C(=O)N4CCC[C@H]4C(=O)N[C@@H](CCC(N)=O)C(=O)N2)NC(=O)[C@H](CCCCN)NC(=O)CNC(=O)[C@H](Cc2ccccc2)NC(=O)[C@H](CCCNC(=N)N)NC(=O)[C@H](CCSC)NC(=O)CNC(=O)[C@H](C)NC(=O)[C@H](CC(=O)O)NC(=O)[C@H](CCCCN)NC(=O)[C@H](CSSC[C@@H](C(=O)N[C@H](C(=O)N2CCC[C@H]2C(=O)N[C@@H](CCCCN)C(=O)O)[C@@H](C)O)NC(=O)[C@H](Cc2c[nH]cn2)NC3=O)NC(=O)[C@@H]2CCCN2C(=O)[C@H](CCCCN)NC1=O [AgTx2, agitoxin 2]
inhibition of binding of labeled ligands by excess unlabeled ligand ([4]; 100 nM unlabeled AgTx2): completely inhibited | IC50 ([4]; displacement of 1 nM AgTx2-GFP, Figure 4B curve, read-out: IC50 (displacement of 50% of the labeled ligand)): 0.7 nM | Kd ([4]; n = 2): 0.1 ± 0.02 nM | fold by which binding constant is lower than that of the labeled variant ([4]; unlabeled toxin vs its GFP-labeled variant): 2–4 times | Kd [3]: 0.21 nM | Kd or IC50 (literature) ([5]; ref 8): 6.4 nM | Kd or IC50 (literature) ([5]; ref 18): 0.004 nM | Kd or IC50 (literature) ([5]; ref 19): 0.2 nM

Nc1ccncc1 [4-aminopiridine]
inhibition of Kv1 channels [1]: inhibit Kv1 channels from the inside of the cell

CC[N+](CC)(CC)CC [tetraethylammonium]
competitive ligand for Kv1-KcsA hybrid channels [6]: competitive ligand

B1: charybdotoxin tagged N-terminally with eGFP (ligand)
chain: QFTNVSCTTSKECWSVCQRLHNTSRGKCMNKKCRCYS
notes: also called ChTx-GFP; GFP-L1-ChTx; source: E. coli Rosetta-gami (DE3) pLysS, pET23d-GFP-L1-ChTx, purified (Ni-NTA, PD-10 desalting); not shown: eGFP (with the linker L1), N-terminal, kept
Kd [7]: 0.86 nM | Kd by the conventional mean/median analysis, which the authors reject [8]: 32 nM

B2: agitoxin 2 tagged N-terminally with eGFP (ligand)
chain: GVPINVSCTGSPQCIKPCKDAGMRFGKCMNRKCHCTPK
notes: The analogous ChTx-GFP was purified on Ni-NTA, so a His tag is likely here too; also called AgTx2-GFP; AgTx-GFP; source: design and production described earlier [14]; (plasmid pET23d-GFP-L1-AgTx2); not shown: eGFP (with the 45-aa linker L1), N-terminal, kept
Kd [9]: 0.2 nM | Kd by the conventional mean/median analysis, which the authors reject [8]: 6 nM

B3: agitoxin 2 (peptide)
chain: GVPINVSCTGSPQCIKPCKDAGMRFGKCMNRKCHCTPK
notes: also called AgTx2; source: recombinant, produced as described earlier [12] from plasmid pET23d-MalE-L1-AgTx2
Kd [9]: 0.1 nM

B4: kaliotoxin 1 (peptide)
chain: GVEINVKCSGSPQCLKPCKDAGMRFGKCMNRKCHCTPK
notes: also called KTx; source: recombinant, produced as described earlier [12] from plasmid pET23d-MalE-L1-KTx
Kd [9]: 0.04 nM
